Strand notation (5' to 3'): a small letter for the sugar, then the base; units joined by * are phosphorothioate-linked, units joined directly phosphodiester-linked; [ ] holds rarer units or linkages, { } end groups; capitals alone tell only the bases. k = constrained ethyl (cEt); [5mC] = 5-methylcytosine; d = 2'-deoxy (DNA)
Tested on: Yap1 mRNA
Test: Dose-dependent inhibition of human Yap1 in A-431 cells (Example 7, 10,000 cells per well, RTS36584)
Assay type: cell-based
Conditions: free uptake
How it was run: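 A-431 cells at 10,000 per well received modified oligonucleotides by free uptake at several doses. After about 48 hours, Yap1 mRNA was quantified with primer-probe set RTS36584, normalized to RIBOGREEN total RNA and expressed as % untreated control. IC50 came from linear regression on a log/linear plot.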

[1] = Table 58, 15.6 nM, A-431 cells 10,000 cells per well, 48 hours
[2] = Table 58, 62.5 nM, A-431 cells 10,000 cells per well, 48 hours
[3] = Table 58, 4000.00 nM, A-431 cells 10,000 cells per well, 48 hours
[4] = Table 58, A-431 cells 10,000 cells per well
[5] = 15.6 nM, A-431 cells, 10,000 cells per well, approximately 48 hours
[6] = 62.5 nM, A-431 cells, 10,000 cells per well, approximately 48 hours
[7] = 4000.00 nM, A-431 cells, 10,000 cells per well, approximately 48 hours
[8] = A-431 cells, approximately 48 hours, linear regression on log/linear plot
[9] = Table 59, 15.6 nM, A-431 cells 10,000 cells per well, 48 hours
[10] = Table 59, 62.5 nM, A-431 cells 10,000 cells per well, 48 hours
[11] = Table 59, 4000.00 nM, A-431 cells 10,000 cells per well, 48 hours
[12] = Table 59, A-431 cells 10,000 cells per well
[13] = Table 56, 15.6 nM, A-431 cells 10,000 cells per well, 48 hours
[14] = Table 56, 62.5 nM, A-431 cells 10,000 cells per well, 48 hours
[15] = Table 56, 4000.00 nM, A-431 cells 10,000 cells per well, 48 hours
[16] = Table 56, A-431 cells 10,000 cells per well
[17] = Table 61, 15.6 nM, A-431 cells 10,000 cells per well, 48 hours
[18] = Table 61, 62.5 nM, A-431 cells 10,000 cells per well, 48 hours
[19] = Table 61, 4000.00 nM, A-431 cells 10,000 cells per well, 48 hours
[20] = Table 61, A-431 cells 10,000 cells per well
[21] = Table 57, 15.6 nM, A-431 cells 10,000 cells per well, 48 hours
[22] = Table 57, 62.5 nM, A-431 cells 10,000 cells per well, 48 hours
[23] = Table 57, 4000.00 nM, A-431 cells 10,000 cells per well, 48 hours
[24] = Table 57, A-431 cells 10,000 cells per well

For “958542 (kT*kA*kT*dA*dG*dT*dA*dT*dT*d[5mC]*dT*dA*dT*k[5mC]*k[5mC]*kA; antisense) [compound 958542]”, the “Yap1 mRNA, % UTC” value [1] was 90 % UTC, the “Yap1 mRNA, % UTC” value [2] was 70 % UTC and the “Yap1 mRNA, % UTC” value [3] was 17 % UTC. For the same substance, the IC50 [4] was 100 nM.

With “958757 (kG*kT*kG*dA*dT*d[5mC]*dT*dG*d[5mC]*dA*d[5mC]*dA*dT*kT*kG*kT; antisense) [compound 958757]” the “Yap1 mRNA, % UTC” value [1] was 110 % UTC, the “Yap1 mRNA, % UTC” value [2] was 89 % UTC and the “Yap1 mRNA, % UTC” value [3] was 27 % UTC. The IC50 [4] was 300 nM.

“958547 (k[5mC]*kA*k[5mC]*dA*dT*dA*d[5mC]*dT*d[5mC]*dT*dA*dG*dT*kT*kA*k[5mC]; antisense) [compound 958547]” was tested, and the “Yap1 mRNA, % UTC” value [1] was 98 % UTC, the “Yap1 mRNA, % UTC” value [2] was 74 % UTC and the “Yap1 mRNA, % UTC” value [3] was 22 % UTC. The IC50 [4] was 200 nM.

“958600 (kG*kT*kA*dG*dA*dT*d[5mC]*dT*dA*dA*dG*dA*dA*kG*k[5mC]*k[5mC]; antisense) [compound 958600]” was tested, and the “Yap1 mRNA, % UTC” value [5] was 69 % UTC, the “Yap1 mRNA, % UTC” value [6] was 44 % UTC and the “Yap1 mRNA, % UTC” value [7] was 14 % UTC. It also gave an IC50 [8] of 50 nM.

With “958597 (k[5mC]*k[5mC]*k[5mC]*dA*dA*dT*dA*d[5mC]*dA*dA*d[5mC]*d[5mC]*dA*kA*kG*kA; antisense) [compound 958597]” the “Yap1 mRNA, % UTC” value [9] was 104 % UTC, the “Yap1 mRNA, % UTC” value [10] was 46 % UTC and the “Yap1 mRNA, % UTC” value [11] was 20 % UTC. For the same substance, the IC50 [12] was 200 nM.

In the case of “958648 (kG*kA*kA*dT*dA*d[5mC]*dT*dG*dA*dG*dT*d[5mC]*dA*kG*kG*kA; antisense) [compound 958648]”, the “Yap1 mRNA, % UTC” value (Table 60, 15.6 nM, A-431 cells 10,000 cells per well, 48 hours) is reported as 80 % UTC, the “Yap1 mRNA, % UTC” value (Table 60, 62.5 nM, A-431 cells 10,000 cells per well, 48 hours) is reported as 65 % UTC and the “Yap1 mRNA, % UTC” value (Table 60, 4000.00 nM, A-431 cells 10,000 cells per well, 48 hours) is reported as 24 % UTC. The IC50 (Table 60, A-431 cells 10,000 cells per well) was 200 nM.

“958752 (kG*kA*kA*dT*dT*dT*dT*dT*dA*dG*dT*d[5mC]*d[5mC]*kA*kG*kT; antisense) [compound 958752]” was tested, and the “Yap1 mRNA, % UTC” value [1] was 102 % UTC, the “Yap1 mRNA, % UTC” value [2] was 66 % UTC and the “Yap1 mRNA, % UTC” value [3] was 9 % UTC. The IC50 [4] was 100 nM.

With “958555 (kG*k[5mC]*kT*dT*dA*dT*dA*dT*dT*dG*dA*dA*dG*kA*kG*kT; antisense) [compound 958555]” the “Yap1 mRNA, % UTC” value [5] was 99 % UTC, the “Yap1 mRNA, % UTC” value [6] was 73 % UTC and the “Yap1 mRNA, % UTC” value [7] was 13 % UTC. The IC50 [8] was 200 nM.

“958550 (k[5mC]*k[5mC]*kT*dG*dT*dA*dG*dA*d[5mC]*dA*d[5mC]*dA*dT*kA*k[5mC]*kT; antisense) [compound 958550]” was tested, and the “Yap1 mRNA, % UTC” value [5] was 91 % UTC, the “Yap1 mRNA, % UTC” value [6] was 60 % UTC and the “Yap1 mRNA, % UTC” value [7] was 10 % UTC. For the same substance, the IC50 [8] was 100 nM.

With “958518 (k[5mC]*k[5mC]*kA*d[5mC]*dA*dG*dT*dA*dA*dT*dA*dG*d[5mC]*kT*k[5mC]*kT; antisense) [compound 958518]” the “Yap1 mRNA, % UTC” value [9] was 95 % UTC, the “Yap1 mRNA, % UTC” value [10] was 55 % UTC and the “Yap1 mRNA, % UTC” value [11] was 4 % UTC. The IC50 [12] was 100 nM.

In the case of “958533 (kG*k[5mC]*kA*dT*dA*dG*dA*dA*dG*dT*dA*dG*dG*kA*kG*k[5mC]; antisense) [compound 958533]”, the “Yap1 mRNA, % UTC” value [9] is reported as 99 % UTC, the “Yap1 mRNA, % UTC” value [10] is reported as 61 % UTC and the “Yap1 mRNA, % UTC” value [11] is reported as 12 % UTC. The IC50 [12] was 100 nM.

With “958356 (antisense kT*kT*kG*dA*dA*dG*dA*dA*dG*dG*dA*dG*dT*k[5mC]*kG*kG) [compound 958356]” the “Yap1 mRNA, % UTC” value [13] was 84 % UTC, the “Yap1 mRNA, % UTC” value [14] was 79 % UTC and the “Yap1 mRNA, % UTC” value [15] was 21 % UTC. For the same substance, the IC50 [16] was 180 nM.

For “958819 (kT*kG*k[5mC]*dT*dT*d[5mC]*dA*dA*d[5mC]*dA*dT*dT*dG*kT*kT*k[5mC]; antisense) [compound 958819]”, the “Yap1 mRNA, % UTC” value [5] was 79 % UTC, the “Yap1 mRNA, % UTC” value [6] was 63 % UTC and the “Yap1 mRNA, % UTC” value [7] was 19 % UTC. The IC50 [8] was 100 nM.

In the case of “958580 (kA*kT*kA*dA*dT*d[5mC]*dT*dT*dA*dA*dT*d[5mC]*dT*kG*kT*kG; antisense) [compound 958580]”, the “Yap1 mRNA, % UTC” value [5] is reported as 95 % UTC, the “Yap1 mRNA, % UTC” value [6] is reported as 59 % UTC and the “Yap1 mRNA, % UTC” value [7] is reported as 9 % UTC. It also gave an IC50 [8] of 100 nM.

For “958567 (kT*k[5mC]*kA*dA*d[5mC]*d[5mC]*dT*dA*dT*dG*dA*dA*d[5mC]*kT*kA*kT; antisense) [compound 958567]”, the “Yap1 mRNA, % UTC” value [1] was 99 % UTC, the “Yap1 mRNA, % UTC” value [2] was 80 % UTC and the “Yap1 mRNA, % UTC” value [3] was 16 % UTC. For the same substance, the IC50 [4] was 200 nM.

With “958544 (kG*k[5mC]*kT*dA*dA*dA*dT*dT*d[5mC]*dA*dA*d[5mC]*dT*kA*k[5mC]*k[5mC]; antisense) [compound 958544]” the “Yap1 mRNA, % UTC” value [5] was 65 % UTC, the “Yap1 mRNA, % UTC” value [6] was 77 % UTC and the “Yap1 mRNA, % UTC” value [7] was 17 % UTC. It also gave an IC50 [8] of 100 nM.

“958476 (kT*kT*k[5mC]*d[5mC]*dG*dG*dT*dG*d[5mC]*dA*dT*dG*dT*kG*kT*k[5mC]; antisense) [compound 958476]” was tested, and the “Yap1 mRNA, % UTC” value [13] was 71 % UTC, the “Yap1 mRNA, % UTC” value [14] was 30 % UTC and the “Yap1 mRNA, % UTC” value [15] was 6 % UTC. The IC50 [16] was 30 nM.

In the case of “958529 (k[5mC]*kA*kA*dG*dT*d[5mC]*dT*dT*dG*dT*dA*dA*dG*kT*kA*kA; antisense) [compound 958529]”, the “Yap1 mRNA, % UTC” value [17] is reported as 103 % UTC, the “Yap1 mRNA, % UTC” value [18] is reported as 64 % UTC and the “Yap1 mRNA, % UTC” value [19] is reported as 11 % UTC. For the same substance, the IC50 [20] was 100 nM.

“958369 (antisense kT*kT*kA*dT*d[5mC]*dT*dA*dG*d[5mC]*dT*dT*dG*dG*kT*kG*kG) [compound 958369]” was tested, and the “Yap1 mRNA, % UTC” value [13] was 107 % UTC, the “Yap1 mRNA, % UTC” value [14] was 68 % UTC and the “Yap1 mRNA, % UTC” value [15] was 17 % UTC. For the same substance, the IC50 [16] was 170 nM.

“958587 (kG*kG*kT*dG*dA*d[5mC]*dT*dG*dA*dA*dA*d[5mC]*dT*k[5mC]*kT*kA; antisense) [compound 958587]” was tested, and the “Yap1 mRNA, % UTC” value [1] was 94 % UTC, the “Yap1 mRNA, % UTC” value [2] was 49 % UTC and the “Yap1 mRNA, % UTC” value [3] was 7 % UTC. The IC50 [4] was 100 nM.

In the case of “958526 (kA*kG*kT*dA*dA*dG*dA*dA*d[5mC]*dA*dA*dT*d[5mC]*kT*kT*kG; antisense) [compound 958526]”, the “Yap1 mRNA, % UTC” value [21] is reported as 118 % UTC, the “Yap1 mRNA, % UTC” value [22] is reported as 83 % UTC and the “Yap1 mRNA, % UTC” value [23] is reported as 17 % UTC. The IC50 [24] was 200 nM.

With “958403 (antisense k[5mC]*kA*kG*dT*dT*dT*dA*dT*dG*dT*dA*dG*dT*kA*kG*kT) [compound 958403]” the “Yap1 mRNA, % UTC” value [13] was 94 % UTC, the “Yap1 mRNA, % UTC” value [14] was 63 % UTC and the “Yap1 mRNA, % UTC” value [15] was 12 % UTC. For the same substance, the IC50 [16] was 120 nM.

In the case of “958569 (kA*kG*k[5mC]*d[5mC]*dT*dT*dA*dG*dA*dG*dT*d[5mC]*dA*kA*kT*kT; antisense) [compound 958569]”, the “Yap1 mRNA, % UTC” value [17] is reported as 82 % UTC, the “Yap1 mRNA, % UTC” value [18] is reported as 49 % UTC and the “Yap1 mRNA, % UTC” value [19] is reported as 7 % UTC. The IC50 [20] was 100 nM.

For “958486 (kT*kT*kA*dG*dA*dG*d[5mC]*d[5mC]*dA*dA*d[5mC]*dT*dG*kT*kG*kA; antisense) [compound 958486]”, the “Yap1 mRNA, % UTC” value [21] was 87 % UTC, the “Yap1 mRNA, % UTC” value [22] was 73 % UTC and the “Yap1 mRNA, % UTC” value [23] was 22 % UTC. For the same substance, the IC50 [24] was 200 nM.

In the case of “958505 (kG*kA*kT*dA*dA*dT*d[5mC]*dG*dA*dG*dA*dT*dT*kT*kA*kA; antisense) [compound 958505]”, the “Yap1 mRNA, % UTC” value [5] is reported as 81 % UTC, the “Yap1 mRNA, % UTC” value [6] is reported as 72 % UTC and the “Yap1 mRNA, % UTC” value [7] is reported as 21 % UTC. For the same substance, the IC50 [8] was 200 nM.
